Experimental findings from patent US20110091470A1, “ANTI-FLT3 ANTIBODIES” (IMCLONE LLC, priority 2008, published 2011) are described below.

Assay [1] deals with SEM-K2 cells. Nature of the assay: Combination therapy with EB10 and MTX in SEM-K2 leukemia model. As to conditions: monotherapy: EB10 10 mg/kg i.p. 2×/week; MTX 100 mg/kg Q7D. The format is in vivo, NOD/SCID mice. On the procedure: One day prior to the start of treatment, i.v. inject 65, 7 weeks old, male NOD/SCID mice with 5×10^5 SEM-K2 cells suspended in PBS in a total volume of 200 μl. Drop from the study mice receiving less than 90% of cells intravenously.
Prepare MTX (Sigma Chemical, Cat # M9929) in USP Saline at a concentration of 10 mg/ml and dose Q7D for three cycles. […] Record mouse survival daily. Follow the mice for survival, and sacrifice any mouse displaying signs of morbidity/mortality; mark as dead on the day of sacrifice. End the study on day 168 and sacrifice any mice surviving to that point. Compare survival in the treatment groups by Log Rank Test between treatment groups.

Assay [2] deals with SEM-K2 cells. The assay is described as follows: SEM-K2 xenograft human leukemia model. Format: in vivo, NOD-SCID mice. The following applies: 20 mg/kg i.p. two times weekly. A general note: In xenograft studies the graft and the host belong to different species.
Assay [3] deals with Human Leukemia Cells. The assay is described as follows: ADCC 51Cr release assay with human NK cells. The format is cell-based.
The test system of assay [4] is human leukemia cells (human CD45) in bone marrow. Nature of the assay: Bone marrow engraftment of human leukemia cells. The format is in vivo, mice. The following applies: 500 μg/dose; versus control-IgG treated group. The procedure:
Bone Marrow Engraftment of Human Leukemia Cells: Harvest bone marrow from the femurs of EB10-treated mice (500 μg/dose) and the control-IgG treated group at […]. Analyze cells for human CD45 by flow cytometry at 6 and 14 weeks post leukemia cell injection for the degree of tumor cell infiltration of bone marrow. Compare the degree of tumor cell infiltration of bone marrow using immunohistochemical staining with a fluorescence-labeled anti-human CD45 antibody.

The subject of assay [5] is Stat5. The assay is described as follows: Stat5 phosphorylation assay. As to conditions: EOL-1, wild type.
For assay [6], the system named is MOLM-14 leukemia cells. Nature of the assay: MOLM14 xenograft AML leukemia model. Format: in vivo, mice. The procedure: MOLM14 Xenograft AML Leukemia Model: Irradiate mice with 200 rads with a gamma irradiator and then i.v. inject with 10×10^6 MOLM-14 leukemia cells. Start treatment one day after tumor injection. […] Treat the control group with […] USP saline. Monitor mice daily for survival. Compare survival in the treatment groups by Log Rank test.

Assay [7] deals with BaF3-ITD cells. Nature of the assay: FL-independent cell proliferation assay ([3H]-thymidine). The format is cell-based. The procedure: Harvest EOL-1 cells and wash three times using serum-free RPMI 1640 medium. Culture cells in serum-free RPMI 1640 medium for 12 hours. For BaF3-ITD cells, perform the proliferation assay in RPMI 1640 medium supplemented with 10% FCS in the absence of exogenous FL. Reconstitute cells in serum-free AIM-V medium, plate in triplicates in a flat-bottomed 96-well plate (1×104/100 μl/well) and incubate with varying concentrations of antibodies (from 0 to 100 nM) and 30 ng/ml of FL at 37° C. for 68 hours. As a background control, incubate cells with medium alone in the absence of exogenous FL. Pulse cells with 0.25 μCi/well of [^3H]-thymidine for 4 hours. Harvest cells and measure cpm in a PerkinElmer Wallace-1205 Betaplate Liquid Scintillation Counter (Wellesley, Mass.). Calculate the percent inhibition of FL-induced proliferation for EOL-1 cells; deduce the cpm of background proliferation (i.e., cell samples not stimulated with FL) from the cpm of all experimental samples. Calculate percent inhibition using the following formula: [(cpm of untreated sample−cpm of antibody-treated sample)/cpm of untreated sample]×100%.

Assay [8] concerns EOL-1 leukemia cells. Nature of the assay: EOL-1 xenograft human AML leukemia model. The format is in vivo, NOD-SCID mice.
For assay [9], the system named is BaF3-ITD cells. Nature of the assay: BaF3-ITD leukemia model. The format is in vivo, athymic (nu/nu) mice. The procedure:
BaF3-ITD Leukemia Model: Initiate i.v. injection of groups of 10 athymic (nu/nu) mice with 5×10^4 BaF3-ITD cells. For statistic analysis, use the non-parametric one-tailed Mann-Whitney Rank Sum test (SigmaStat 2.03, SPSS, Inc., Chicago, Ill.). Start treatment one day after tumor injection. […] Treat the control group with purified human IgG (500 μg/dose). Monitor mice daily for survival.

Assay [10] addresses wild-type FLT3 expressed on human leukemia cells (human) (UniProt P36888). The assay is described as follows: cell-based or functional assay.
The target in assay [11] is ITD-mutant FLT3 expressed on BaF3-ITD cells. The assay is described as follows: cell-based or functional assay.
Where [12] appears, read: 100 μg/dose i.p. three times weekly.
[13] abbreviates: 500 μg/dose i.p. three times weekly.

ITD-mutant FLT3 expressed on BaF3-ITD cells, sequence (chain, as listed by the source mutant limits assumed, form in doubt): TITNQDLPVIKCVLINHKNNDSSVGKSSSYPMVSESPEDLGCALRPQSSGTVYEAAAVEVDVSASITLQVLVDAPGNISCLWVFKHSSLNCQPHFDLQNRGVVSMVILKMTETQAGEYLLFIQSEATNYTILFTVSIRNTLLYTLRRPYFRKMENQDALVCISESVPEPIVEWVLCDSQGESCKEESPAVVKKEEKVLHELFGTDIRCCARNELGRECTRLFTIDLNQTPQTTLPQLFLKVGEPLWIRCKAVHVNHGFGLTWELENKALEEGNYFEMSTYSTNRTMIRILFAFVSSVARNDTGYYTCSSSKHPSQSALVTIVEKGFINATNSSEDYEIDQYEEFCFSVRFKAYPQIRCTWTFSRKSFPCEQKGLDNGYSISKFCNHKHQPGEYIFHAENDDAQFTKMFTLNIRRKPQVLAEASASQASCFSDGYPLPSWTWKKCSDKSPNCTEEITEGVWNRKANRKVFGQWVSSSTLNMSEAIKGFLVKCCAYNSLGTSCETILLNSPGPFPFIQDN
wild-type FLT3 expressed on human leukemia cells (human), sequence (P36888 27-993 limits assumed): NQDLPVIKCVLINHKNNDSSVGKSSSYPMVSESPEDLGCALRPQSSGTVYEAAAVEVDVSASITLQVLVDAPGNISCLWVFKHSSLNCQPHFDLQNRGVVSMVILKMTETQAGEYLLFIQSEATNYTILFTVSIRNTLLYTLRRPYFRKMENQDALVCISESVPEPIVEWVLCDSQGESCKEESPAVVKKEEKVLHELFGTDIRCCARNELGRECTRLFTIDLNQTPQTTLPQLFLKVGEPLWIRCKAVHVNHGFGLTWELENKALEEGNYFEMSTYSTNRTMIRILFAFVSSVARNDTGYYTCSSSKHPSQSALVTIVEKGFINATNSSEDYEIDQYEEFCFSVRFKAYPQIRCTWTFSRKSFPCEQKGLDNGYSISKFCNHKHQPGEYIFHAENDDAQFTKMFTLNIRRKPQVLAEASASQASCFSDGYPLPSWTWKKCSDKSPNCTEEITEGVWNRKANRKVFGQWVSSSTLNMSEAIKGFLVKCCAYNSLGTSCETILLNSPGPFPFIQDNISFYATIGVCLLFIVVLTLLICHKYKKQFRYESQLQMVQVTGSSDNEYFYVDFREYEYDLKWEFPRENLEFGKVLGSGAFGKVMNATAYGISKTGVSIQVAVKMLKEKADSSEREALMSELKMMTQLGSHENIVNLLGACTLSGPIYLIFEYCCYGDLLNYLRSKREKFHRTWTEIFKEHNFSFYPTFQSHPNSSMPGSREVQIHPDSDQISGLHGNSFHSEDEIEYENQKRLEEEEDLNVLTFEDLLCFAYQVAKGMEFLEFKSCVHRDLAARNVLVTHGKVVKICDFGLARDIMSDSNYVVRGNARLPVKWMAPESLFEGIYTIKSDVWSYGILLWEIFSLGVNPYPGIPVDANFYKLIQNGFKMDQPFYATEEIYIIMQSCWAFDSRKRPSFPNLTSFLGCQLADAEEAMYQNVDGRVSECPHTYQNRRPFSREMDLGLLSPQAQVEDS

For the molecule `CN(Cc1cnc2nc(N)nc(N)c2n1)c1ccc(C(=O)N[C@@H](CCC(=O)O)C(=O)O)cc1` [MTX, methotrexate, reference compound], the “mouse survival in comparison to the control group (in words)” value in assay [1] is “prolonged survival”.

Regarding “D4-3: recombinant human monoclonal antibody, full length IgG1κ targeting human FLT3; heavy chain SEQ ID NO 27, light chain SEQ ID NO 30 [Antibody D4-3]”, in assay [2], the median survival is 55.5 days. For the same molecule, the “ADCC response (in words)” value in [3] is recorded as “less potent ADCC response”.

In the case of “EB10: recombinant human monoclonal antibody, full length IgG1κ targeting human FLT3; heavy chain SEQ ID NO 25, light chain SEQ ID NO 28”, the median survival was found to be 108.5 days in assay [2], 38.5 days in assay [6] (0.2 mg/kg i.p. two times weekly) and 63 days in assay [6] (10 mg/kg i.p. two times weekly). Moreover, the “ADCC response (in words)” value in [3] was “strong ADCC response”. Further, in [4], the “number of tumor cells in bone marrow” value is on record as “decreased significantly”. For the same molecule, in assay [5], the “Inhibition of Stat5 Phosphorylation (IC50)” value was “No effect”. The “mouse survival in comparison to the control group (in words)” value in [1] is given as “significantly prolonged mouse survival”. Also, the “% Inhibition of FL-independent proliferation (Mean ± Standard deviation)” value in [7] (6 nM) was found to be 9.6 ± 3.1%; in [7] (13 nM) it was 13.0 ± 4.0%; in [7] (25 nM), 23.3 ± 0.6%; in assay [7] (50 nM) it was 28.6 ± 3.1%; in [7] (100 nM), 29.2 ± 3.0%. Further, the “effect on survival (in words)” value in [8] (10 μg) is given as “No effect”. Also, the mean survival time was 52.8 ± 18.6 days in assay [8] (setting [12]); 55.3 ± 18.9 days in assay [8] (250 μg/dose i.p. three times weekly); 62.3 ± 18.7 days in assay [8] (setting [13]); 66.5 ± 32.9 days in assay [9] (setting [12]); 63.4 ± 44.6 days in [9] (setting [13]).

Consider control IgG (antibody), for which the % Inhibition of FL-induced proliferation of EOL-1 cells at 100 nM in [10] was 0.4%. The % Inhibition of FL-independent proliferation of BaF3-ITD cells at 100 nM in assay [11] came to 2%.
